Reference: publication PMC12557380, “Optimization of 2,8-Diaryl-1,5-naphthyridines as Plasmodium falciparum Phosphatidylinositol 4‑Kinase Inhibitors with Improved ADME Profiles and In Vivo Efficacy” (Journal of Medicinal Chemistry, 2025)
≈ marks a conversion by molar mass, not a printed value. Like-named read-outs stand apart in the source and are kept apart here.

Columns and labels:
[1] = test system: P. falciparum NF54 (PfNF54) parasites; assay: In vitro antiplasmodial asexual blood stage activity, pLDH assay, NF54; assay type: cell-based, Plasmodium falciparum
[2] = test system: Chinese hamster ovary cells; assay: Cytotoxicity, MTT assay, CHO; assay type: cell-based; conditions: Cricetulus griseus, read-out: CHO IC50
[3] = test system: P. falciparum K1 (PfK1) strain; assay: In vitro antiplasmodial asexual blood stage activity, pLDH assay, K1; assay type: cell-based; conditions: Plasmodium falciparum
physchem [4] = conditions: 25 °C, pH 6.5, aqueous buffer, thermodynamic from solid
in vivo = conditions: male, Balb/C, mouse, po, 10 mg/kg
physchem [5] = conditions: n-octanol/phosphate buffer (1:1), pH 7.4
in vitro [6] = conditions: mouse, pH 7.4
in vitro [7] = conditions: human, pH 7.4
[8] = Plasmodium falciparum, NF54, 72 h, read-out: Pf ABS IC50 NF54
[9] = Plasmodium falciparum, NF54, read-out: PfNF54 IC50
[10] = K1, 72 h, read-out: Pf ABS IC50 K1
[11] = Plasmodium falciparum, NF54, 72 h, pLDH assay, 72 h, read-out: Pf ABS IC50 NF54
[12] = Plasmodium falciparum, NF54, mean, supplement, read-out: PfNF54 IC50
[13] = K1, mean, supplement, read-out: PfK1 IC50
[14] = K1, pLDH assay, 72 h, read-out: Pf ABS IC50 K1

SMILES	IC50 [2] [nM]	IC50 [1, 8] [nM]	IC50 [1, 9] [nM]	IC50 [3, 10] [nM]	IC50 ([3]; K1, read-out: PfK1 IC50) [nM]	IC50 [1, 11] [nM]	IC50 [1, 12] [nM]	solubility thermodynamic at 20 h (physchem [4]; aqueous solution) [µM]	also measured
CCN(CC)CCCC(C)Nc1ccnc2cc(Cl)ccc12 (centres unmarked) [Chloroquine, reference compound]									IC50 ([1]; Plasmodium falciparum, NF54, 72 h, read-out: PfNF54 IC50): 11 nM
C[S+]([O-])c1cccc(-c2ccc3nccc(-c4ccnc(C(F)(F)F)c4)c3n2)c1 (centres unmarked) [Compound 11, 2-(3-Methylsulfinylphenyl)-8-[2-(trifluoromethyl)pyridin-4-yl]-1,5-naphthyridine]	14000	42	42.5						
Cn1ccc(-c2ccc3nccc(-c4ccnc(C(F)(F)F)c4)c3n2)cc1=O [Compound 13, 1-Methyl-4-[8-[2-(trifluoromethyl)pyridin-4-yl]-1,5-naphthyridin-2-yl]pyridin-2-one]		77	77.4						
O=c1cc(-c2ccc3nccc(-c4ccnc(C(F)(F)F)c4)c3n2)ccn1CCO [Compound 14, 1-(2-Hydroxyethyl)-4-[8-[2-(trifluoromethyl)pyridin-4-yl]-1,5-naphthyridin-2-yl]pyridin-2-one]			131	340	344				
NC(=O)Cc1cccc(-c2ccc3nccc(-c4ccnc(C(F)(F)F)c4)c3n2)c1 [Compound 15, 2-[3-[8-[2-(Trifluoromethyl)pyridin-4-yl]-1,5-naphthyridin-2-yl]phenyl]acetamide]	> 50000	310	310	1600	1620				
O[C@H]1CN(c2cc(-c3ccc4nccc(-c5ccnc(C(F)(F)F)c5)c4n3)ccn2)C[C@@H]1O [Compound 16, (3S,4S)-1-[4-[8-[2-(Trifluoromethyl)pyridin-4-yl]-1,5-naphthyridin-2-yl]pyridin-2-yl]pyrrolidine-3,4-diol]	28000	51	50.8	350	355				
CC(C)(O)C(=O)N1CC=C(c2ccc3nccc(-c4ccnc(C(F)(F)F)c4)c3n2)CC1 [Compound 17, 2-Hydroxy-2-methyl-1-[4-[8-[2-(trifluoromethyl)pyridin-4-yl]-1,5-naphthyridin-2-yl]-3,6-dihydro-2H-pyridin-1-yl]propan-1-one]	> 50000	140	144	460	463				
CS(=O)(=O)c1cccc(-c2ccc3nccc(-c4cccc(S(C)(=O)=O)c4)c3n2)c1 [Compound 18, 2,8-Bis(3-methylsulfonylphenyl)-1,5-naphthyridine]						16	17.2		IC50 ([2]; one biological replicate): 37000 nM; solubility thermodynamic at 20 h (physchem [4]): < 5 µM; IC50 ([1]; pLDH assay, 72 h, read-out: Pf ABS IC50 NF54): 17 nM
Cn1cc(-c2ccc3nccc(-c4cccc(S(C)(=O)=O)c4)c3n2)ccc1=O [Compound 20, 1-Methyl-5-[8-(3-methylsulfonylphenyl)-1,5-naphthyridin-2-yl]pyridin-2-one]	34000	410	411						
Cn1ccc(-c2ccc3nccc(-c4ccnc(C(C)(C)O)c4)c3n2)cc1=O [Compound 23, 4-[8-[2-(2-Hydroxypropan-2-yl)pyridin-4-yl]-1,5-naphthyridin-2-yl]-1-methylpyridin-2-one]	> 50000	140	144	280	277				
Cn1ccc(-c2ccc3nccc(-c4ccc(C(C)(C)O)nc4)c3n2)cc1=O [Compound 24, 4-[8-[6-(2-Hydroxypropan-2-yl)pyridin-3-yl]-1,5-naphthyridin-2-yl]-1-methylpyridin-2-one]						36	35.9	175 (≈ 65.2 µg/mL)	bioavailability (in vivo): 10%; logD at 3 h (physchem [5]): 1.98; IC50 ([2]; one biological replicate): 12000 nM; in vivo mouse CLb (total body clearance from whole blood, iv 3 mg/kg): 110 mL/min/kg; in vivo mouse CLu (unbound blood clearance from CLb and plasma protein binding): 379 mL/min/kg; IC50 [3, 13]: 107 nM; IC50 [3, 14]: 110 nM; CLint scaled at 1 µM (in vitro [6]; microsomes): < 45.7 mL/min/kg; CLint scaled at 1 µM (in vitro [6]; mouse liver microsomes): < 59.4 mL/min/kg; CLint scaled at 1 µM (in vitro [7]; microsomes): < 13.4 mL/min/kg; CLint scaled at 1 µM (in vitro [7]; pooled human liver microsomes): < 17.4 mL/min/kg
Cn1ccc(-c2ccc3nccc(-c4ccc(C(C)(C)O)cc4)c3n2)cc1=O [Compound 25, 4-[8-[4-(2-Hydroxypropan-2-yl)phenyl]-1,5-naphthyridin-2-yl]-1-methylpyridin-2-one]						2100	2160	190 (≈ 70.6 µg/mL)	
CC(C)(O)c1ccc(-c2ccnc3ccc(-c4cccc(CC(N)=O)c4)nc23)cn1 [Compound 26, 2-[3-[8-[6-(2-Hydroxypropan-2-yl)pyridin-3-yl]-1,5-naphthyridin-2-yl]phenyl]acetamide]	30000	37	37.6	150	151				
CC(C)(O)c1ccc(-c2ccnc3ccc(-c4ccnc(N5C[C@H](O)[C@@H](O)C5)c4)nc23)cn1 [Compound 28, (3S,4S)-1-[4-[8-[6-(2-Hydroxypropan-2-yl)pyridin-3-yl]-1,5-naphthyridin-2-yl]pyridin-2-yl]pyrrolidine-3,4-diol]						43	42.9	20 (≈ 8.87 µg/mL)	IC50 ([2]; one biological replicate): > 50000 nM; IC50 [3, 13]: 52.7 nM; IC50 [3, 14]: 53 nM
CC(C)(O)c1ccc(-c2ccnc3ccc(-c4cccc(CS(C)(=O)=O)c4)nc23)cn1 [Compound 29, 2-[5-[6-[3-(Methylsulfonylmethyl)phenyl]-1,5-naphthyridin-4-yl]pyridin-2-yl]propan-2-ol]	> 50000	46	46.4	1600	1630				
CC(C)(O)c1cccc(-c2ccc3nccc(-c4ccc(C(C)(C)O)nc4)c3n2)c1 [Compound 30, 2-[3-[8-[6-(2-Hydroxypropan-2-yl)pyridin-3-yl]-1,5-naphthyridin-2-yl]phenyl]propan-2-ol]						100	105	55 (≈ 22 µg/mL)	IC50 ([2]; one biological replicate): 3000 nM; IC50 [3, 13]: 34.5 nM; IC50 [3, 14]: 34 nM
CC(C)(O)c1ccc(-c2ccnc3ccc(-c4cccc(C(C)(C)O)c4F)nc23)cn1 [Compound 31, 2-[2-Fluoro-3-[8-[6-(2-hydroxypropan-2-yl)pyridin-3-yl]-1,5-naphthyridin-2-yl]phenyl]propan-2-ol]						2300	2360	10 (≈ 4.17 µg/mL)	IC50 [3, 13]: 472 nM; IC50 [3, 14]: 470 nM
CC(C)(O)c1ccc(-c2ccnc3ccc(-c4ccc(C(F)(F)F)nc4)nc23)cn1 [Compound 32, 2-[5-[6-[6-(Trifluoromethyl)pyridin-3-yl]-1,5-naphthyridin-4-yl]pyridin-2-yl]propan-2-ol]						210	207	< 5	
Cn1cc(-c2ccnc3ccc(-c4cccc(S(C)(=O)=O)c4)nc23)ccc1=O [Compound 33, 1-Methyl-5-[6-(3-methylsulfonylphenyl)-1,5-naphthyridin-4-yl]pyridin-2-one]						96	95.6	55 (≈ 21.5 µg/mL)	
Cn1ccc(-c2ccnc3ccc(-c4cccc(S(C)(=O)=O)c4)nc23)cc1=O [Compound 34, 1-Methyl-4-[6-(3-methylsulfonylphenyl)-1,5-naphthyridin-4-yl]pyridin-2-one]	44000		173	340	338			175 (≈ 68.5 µg/mL)	
CS(=O)(=O)c1cccc(-c2ccc3nccc(-c4ccn(CCO)c(=O)c4)c3n2)c1 [Compound 35, 1-(2-Hydroxyethyl)-4-[6-(3-methylsulfonylphenyl)-1,5-naphthyridin-4-yl]pyridin-2-one]	> 50000	200	200					195 (≈ 82.2 µg/mL)	
CS(=O)(=O)c1cccc(-c2ccc3nccc(-c4cccc(C(=O)N5CCC(O)C5)c4)c3n2)c1 (centres unmarked) [Compound 36, [3-[6-(3-Methylsulfonylphenyl)-1,5-naphthyridin-4-yl]phenyl]-(3-hydroxypyrrolidin-1-yl)methanone]	33000	220	217	240	244			50 (≈ 23.7 µg/mL)	
CS(=O)(=O)c1cccc(-c2ccc3nccc(-c4ccc(C(=O)N5CC[C@H](N)C5)cc4)c3n2)c1 [Compound 38, [(3S)-3-Aminopyrrolidin-1-yl]-[4-[6-(3-methylsulfonylphenyl)-1,5-naphthyridin-4-yl]phenyl]methanone]						48	48.6	180 (≈ 85.1 µg/mL)	IC50 ([2]; one biological replicate): 28000 nM
CC[C@H]1CN2CCc3cc(OC)c(OC)cc3[C@@H]2C[C@@H]1C[C@H]1NCCc2cc(OC)c(OC)cc21 [Emetine, reference compound]	< 3								
